US9345744B2, “Peptide-based collagen modulators for wound healing and tissue repair” (MUSC FOUNDATION FOR RESEARCH DEVELOPMENT, priority 2012, dated 2016)
Entries after “also recorded” stand apart in the source; their conditions may differ. Read-outs that look alike come from different tables or passages of the source.

How the values were obtained:
[1] = system: Sprague Dawley rats, latissimus dorsi muscle; assay: Silicon wafer implant with exogenous ATP or apyrase, histology at 24 hours; format: in vivo, rat; details: for inflammatory infiltrate in the implant region: implant plus exogenous agent
Excerpt: FIG. 16. A composite panel of microscopy images taken from H&E stained sections of muscle tissue adjacent to the silicon implant. […] The other images in the panel are high magnification showing areas of high inflammation and necrosis bottom two panels and relatively low inflammation away from the implant site, upper right. The top right set of images is from the tissue adjacent to the implant that had also been treated with exogenous ATP. […] And that by modulating the ATP signal we can potentially modulate the initial inflammatory reaction.
15 male Sprague Dawley rats underwent unilateral implantation of silicon wafer implants. Three animals received implants only, three received implants plus exogenous ATP, three received implants plus exogenous apyrase, an enzyme that scavenges ATP, three underwent surgery alone without an implant, and three received a percutaneous injection of exogenous ATP into the latissimus dorsi muscle. The implants were harvested after 24 hours to evaluate the extent of inflammatory infiltrate and preservation of muscle.

HMVECs = assay: ATP release from endothelial cells; format: cell-based, human
Method: FIG. 15. ATP is released from endothelial cells in response to low Ca^2+ and the inflammatory cytokine IL-6. HMVECs were treated for 5 hours with either nothing or IL-6 (0.01 ng/mL). After the 5 hr incubation, HBSS (w/Ca^2+ and Mg^2+)—25 mM HEPES was added to one set of controls (“Control”) and the IL-6 treated cells for 5 min. To the other set of control wells, HBSS (w/o Ca^2+ and Mg^2+)—25 mM HEPES was added as a positive control for Cx43 hemichannel-mediated ATP release (“Low Ca^2+”). The error bars represent the standard error for replicates within the same experiment.
The possibility that Cx43 acts as a mediator of inflammation through hemichannel mediated release of ATP was further examined Studies on ATP release in the HeLa cell models, as well as primary human microvascular endothelial cells (HMVECs), were performed. […] However, the inventors also observed that, in preliminary experiments, ATP released in response to low Ca^2+ was not inhibited by treatment with mefloquine, a commonly used connexin channel blocker. Endothelial cells may also release ATP through vesicular exocytotic mechanisms in a Ca^2+ dependent manner (Bodin and Burnstock, 2001; McDonald et al., 2010). Pannexin channels, which can also mediate ATP release, are similarly sensitive to mefloquine (Lohman et al., 2012; Bodin et al, 2001).

SD rat cornea = details: cited from earlier work
NIH-3T3 cells = details: 30 μM, cited from earlier work
[2] = system: Sprague-Dawley rats with silicone disks; details: cited from earlier work
C6 glioma cell line = details: cited from earlier work
adult mouse skin wound = details: cited from earlier work
[3] = system: U87 MG glioblastoma cells; details: cited from earlier work
Cx43 hemichannel = biological target: T1, Cx43 hemichannel (Homo sapiens, UniProt P17302); details: Rhett et al., 2011; cited from earlier work
T1 construct: expressed in transfected cells

[4] = system: C57BL/6 mouse, laser-induced CNV; details: cited from earlier work
[5] = system: myocytes from neonatal rats; details: 30 μM, 5 days; cited from earlier work
[6] = system: implants in skeletal muscle; assay: Inflammatory infiltrate at implants, myeloperoxidase stain; format: in vivo; details: 24 hour time point
Excerpt: In attempting to quantify the neutrophil infiltrate using a myeloperoxidase stain, the inventors observed that some of the cells stained darker than others. Upon further investigation, these cells were not neutrophils as but rather were macrophages.

[7] = cited from earlier work
adult rat brain injury = details: 100 μM in 2% collagen vehicle; cited from earlier work
CD1 mice, LV cryo-injury = details: cited from earlier work
rat skin wound = details: cited from earlier work
[8] = system: neonatal mouse skin wound; details: cited from earlier work
ARPE19 cell = details: cited from earlier work
[9] = system: neonatal rat cardiac fibroblast cells; assay: Western blot of collagen type I in conditioned media and cell lysates of peptide-treated neonatal cardiac fibroblasts; format: cell-based
Excerpt: Isolation and treatment of Neonatal Cardiac Fibroblasts with Cx43 based peptides (peptides used included ACT1, JM1, JM2, Antenapedia [ANT], reverse ACT1 [Rev], poly Arginine [poly r]). Neonatal cardiac fibroblasts (NHFs) were isolated from 3-4 day old rat hearts by collagenase digestion (100 U/mL) and differential attachment as previously described (Borg et al., 1984). All cells were maintained in Dulbecco's Modified Eagle Medium (DMEM) supplemented with 10% Fetal Bovine Serum and 100 U/mL penicillin G and 100 μg/mL streptomycin and used prior to passage four. For experiments, 40,000 NHFs were plated into the wells of a 24-well tissue culture plate and grown for 24-48 hours. On the day of treatment, media was removed from each well and replaced with fresh media containing 50 μg/mL L-ascorbic acid-2-phosphate; Sigma Chemical Co., St. Louis, Mo.). The appropriate volume of each peptide (resuspended in sterile, deionized 18 MΩ resistivity water) was added to achieve the desired final concentration (30, 90, 180 μM peptide concentrations were tested). Culture plates were incubated overnight in a 37° C. incubator with 5% CO2.
Conditioned culture media was collected from each well and stored at −20° C. for analysis of soluble collagen. Cellular protein, including insoluble collagen and collagen still within the NHFs, were isolated by adding 100-200 μL of cell lysis buffer (0.01 M Tris, pH 7.4, 0.001 M Sodium Orthovanadate, 1% sodium dodecylsulfate [SDS]) to each well and incubating 10 minutes at room temperature. Prior to addition, cell lysis buffer was warmed to facilitate solubilzation of SDS and 100 μL of Halt protease inhibitor (Pierce Biotechnology, Rockford, Ill.) was added per 10 mL buffer to be used. […] Protein concentrations of cell lysates were determined using a Micro BCA assay (Pierce). […] The presence of collagen was determined by probing the membranes with a rabbit anti-mouse collagen type I antibody (MD Biosciences) at 1:20,000 dilution in blocking buffer (5% milk in Tris-buffered saline) followed by a goat anti-rabbit IgG horseradish peroxidase conjugated antibody at 1:100,000 (Southern Biotech Associates) and detection with Pierce SuperSignal Femto West detection reagent (Pierce).
To assess the activity of JM1 and JM2 peptides with respect to collagen production and their potential in mediating wound healing, cardiac fibroblasts were treated with these two peptides and their effectiveness compared to that for the previous described Cx43 peptide ACT1. NHFs were treated with various concentrations of JM1, JM2, ACT1, and ANT (Antenapedia) peptides, vehicle (water) or left untreated and the production of collagen both in the culture media and cell-associated collagen assessed by western blotting. […]

T1 sequence (P17302 whole entry): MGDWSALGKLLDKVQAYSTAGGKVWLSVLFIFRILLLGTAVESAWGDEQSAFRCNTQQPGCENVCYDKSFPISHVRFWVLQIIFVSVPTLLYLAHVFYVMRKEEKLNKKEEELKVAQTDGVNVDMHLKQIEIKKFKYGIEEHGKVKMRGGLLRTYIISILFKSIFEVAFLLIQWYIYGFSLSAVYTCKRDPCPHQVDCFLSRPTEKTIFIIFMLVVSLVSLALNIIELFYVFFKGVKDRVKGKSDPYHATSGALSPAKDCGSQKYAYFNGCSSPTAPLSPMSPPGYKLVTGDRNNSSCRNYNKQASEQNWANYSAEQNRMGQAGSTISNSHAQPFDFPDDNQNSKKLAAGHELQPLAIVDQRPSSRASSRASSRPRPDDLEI

## Nc1ncnc2c1ncn2[C@@H]1O[C@H](COP(=O)(O)OP(=O)(O)OP(=O)(O)O)[C@@H](O)[C@H]1O [ATP]
[1]
  inflammatory infiltrate in the implant region: profound increase in inflammatory infiltrate
[1]; percutaneous injection, no implant
  inflammatory infiltrate in skeletal muscle: more inflammatory infiltrate than the surgery alone; also recorded: causes significant inflammation

## OC(c1cc(C(F)(F)F)nc2c(C(F)(F)F)cccc12)C1CCCCN1 (stereo not shown) [mefloquine]
HMVECs; treatment with blocker, preliminary experiments
  ATP released in response to low Ca2+: not inhibited

## IL-6: the inflammatory cytokine IL-6
HMVECs; IL-6 0.01 ng/mL, 5 hours
  ATP release: increased ATP release

## RQPKIWFPNRRKPWKKRPRPDDLEI [ACT1, Cx43 carboxyl-terminal peptide incorporating aas 373 to 382 of Cx43, U.S. Pat. No. 7,786,074]
SD rat cornea; 24 hrs
  corneal re-epithelialization: re-epithelializing much faster than control corneas
SD rat cornea; 72 hrs
  corneal re-epithelialization: significantly greater re-epithelialization
SD rat cornea; rat, in vivo
  corneal closure and regeneration: faster closure and more complete corneal regeneration
NIH-3T3 cells; 24 hours
  repopulation of scratch injury: few cells repopulating the area
NIH-3T3 cells
  proliferation of the cells: reduced proliferation
[2]; capsulectomies days 1-28
  neutrophil infiltration: attenuating neutrophil infiltration
[2]; rat, in vivo
  presence of contractile myofibroblasts: reducing the continued presence of contractile myofibroblasts
  type I collagen deposition around the implant: reducing type I collagen deposition around the implant
  vascularity of the capsule tissue: increasing vascularity of the capsule tissue
C6 glioma cell line; C6, Boyden chamber
  motility across a porous membrane: significantly decreased
C6 glioma cell line; C6
  adhesive properties: did not change
  cell morphology: altered morphology
Adult mouse skin wound; 100 μM in 30% pluronic gel, 10-14 day time course
  closure, inflammation, healing and scarring of excisional injuries: closed faster, were less inflamed in appearance, healed faster and scarred less
Adult mouse skin wound; 7 and 10 days post-wounding
  scarring/overall appearance: significantly improved
Adult mouse skin wound; 24 hr and 4 days post-wounding
  wound redness: significantly decreased
Adult mouse skin wound; 24 hr, 4, 7 and 10 days
  wound size: significantly smaller in size
[3]; Boyden chamber
  motility across a porous membrane: significantly decreased
[3]
  aggregation: higher degree of aggregation
Cx43 hemichannel
  Cx43 hemichannel activity: inhibits Cx43 hemichannel activity
[4]; relative to PBS controls
  CNV lesion size / injury spread: significantly reduced; also recorded: reduced CNV injury spread
[4]; relative to controls
  retinal function (ERG): improved retinal function
[5]
  extent of Cx43 gap junction formation between myocytes: greatly increased
[6]
  primary inflammatory infiltrate: macrophages
[7]; 100 uM, corneal application, 20 and 40 minutes
  peptide in aqueous humor (anterior chamber): detectable level
[7]; 20 and 40 minutes
  peptide in vitreous humor (posterior chamber), Western blotting: Lower levels of peptide could also be detected
[7]; corneal application
  peptide in retinal pigment epithelial layer: detectable in the retinal pigment epithelial layer
Adult rat brain injury
  NeuN immunolabeled neurons proximal to the HFM: higher numbers
  density of GFAP-positive astrocytes adjacent the HFM: much lower density
CD1 mice, LV cryo-injury; 8 week time course
  LV diastolic and systolic function: significant improvement
CD1 mice, LV cryo-injury; mouse, in vivo
  scar uniformity: significantly increased scar uniformity
CD1 mice, LV cryo-injury; pacing and S1-S2 protocols
  frequency and severity of arrhythmias: dramatically reduced
Rat skin wound; 150 μM peptide, 30 days
  scar area and scar tissue volume / scar size: significantly (p<0.05) smaller
Rat skin wound; versus the other 4 wounds
  wound closure rates: significantly faster closure rates
[8]; 60 μM in 20% pluronic gel, 48 hours
  wound closure, inflammation, swelling: significantly more closed, less inflamed, less swollen
[8]; 60 μM, 7 days
  wound appearance / scarring: smoother and less scarred appearance
ARPE19 cell; pre-treatment with peptide
  VEGF-dependent drop in TER: ameliorated the drop in TER; also recorded: blocked
[9]; 30, 90, 180 μM, overnight
  secretion/production of mature, fully processed type I collagen (conditioned media): decreased levels of fully processed collagen I a1 chains; also recorded: dose-dependent reduction
[9]; ACT1, highest doses of JM1 and JM2
  higher molecular weight collagen species in cell lysate: absence of higher molecular weight collagen species
[9]; cell lysates, JM1, JM2 at maximum dose tested
  mature / processed type I collagen in NHF cell lysate: slight decreases in processed collagen I a1 chains
[9]; cultured fibroblasts, FIGS. 1 and 2
  collagen synthesis, processing and secretion from fibroblasts: reduced collagen processing and secretion

## VEGF
ARPE19 cell; VEGF alone, by 4 hours post-application
  TER: significantly (p<0.05) reduces TER; also recorded: rapid deterioration

## apyrase
[1]
  inflammatory infiltrate in the implant region: significantly reduced the inflammatory infiltrate; also recorded: marked decrease in inflammatory infiltrate
